# Data as given in US12325866B2, “Systems and methods for growing cells in vitro” (Yissum Research Development Company of the Hebrew …, priority 2016, dated 2025).
# Columns and labels:
# CSIF [1] = experiment: Conversion of CSIF to adipocytes in serum-free medium (LipidTOX neutral lipid stain); assay type: cell-based, chicken
# Procedure: FIGS. 4A-D depict conversion of CSIF to adipocytes in serum-free medium. FIGS. 4A-C. LipidTOX™ (Thermo Fisher Scientific) neutral lipid stain of serum-free cultures of CSIF exposed to either 400 μM oleic acid (OA) alone (FIG. 4A) or with 0.5 mM IBMX (OA+IBMX, FIG. 4B), or 10 μM Rosiglitazone (OA+TZD, FIG. 4C) for 7 days. […] FIG. 4D—Normalized intracellular lipid content (in arbitrary fluorescent units) of CSIF cultures treated for 4 and 7 days as prescribed above.
# To develop a protocol for conversion of the spontaneously immortalized chicken fibroblasts (CSIF line) under serum-free conditions, the present inventor seeded the CSIF at 70% confluence in the optimized serum-free DMEM/F12 medium supplemented with dexamethasone (0.1 μM), 1×ITS+3 (Sigma, 12771), and bFGF (10 ng/ml). The CSIF cells were treated for 4 or 7 days with 200 to 400 μM oleic acid alone, or in combination with 0.5 mM IBMX, or 10 μM of the FDA-approved small molecule Rosiglitazone.
# [2] = system: stromal-vascular cells derived from chicken adipose tissues; conditions: oleic acid 200-400 μM, in the presence of serum; cited from earlier work
# [3] = system: primary chicken embryonic fibroblasts (CEF); experiment: Proliferation of primary CEF in serum-free media / with supplements; assay type: cell-based; conditions: serum-free medium, or minimal medium plus supplement (EGF 5 ng/ml, PGE2 0.01 μM, GH 10 ng/ml)
# Procedure: The CSIFs readily grow on tissue culture plastic in DMEM/F12 medium supplemented with 15% FBS, and 2 mM of […] (FIG. 2D). There are several serum-free medium formulations for the growth of human and mouse fibroblasts, including PCS-201-040 (ATCC) and […] To develop a serum-free medium that supports the culture of CEF and CS IF, the present inventor formulated a minimal medium composed of DMEM/F12 supplemented with 0.1 μM dexamethasone, 10 μg/ml insulin, 5.5 μg/ml transferrin, and 5 ng/ml selenium (ITS), 12 μM linoleic and 12 μM oleic acids, and 2 mM of […]. Cells were plated in FBS containing medium, and transferred to minimal medium after overnight attachment. Basal medium was supplemented with growth factors and hormones showing that while heparin and T3 had little effect of CSIF growth (data not shown), the addition of basic Fibroblast Growth Factor (bFGF, 10 ng/ml) was essential (FIGS. 3C and 3F), showing 20±2 hours doubling time (data not shown).
# CSIF [4] = experiment: Serum-free medium development: sulforhodamine B stain and protein content after 72 hours; assay type: cell-based, chicken; conditions: for Effect on CSIF growth / proliferation: supplement added to minimal serum-free medium, bFGF 10 ng/ml, EGF 5 ng/ml, PGE2 0.01 μM, GH 10 ng/ml
# Procedure: FIGS. 3A-F depict the development and identification of serum-free medium for CSIF propagation. Shown are sulforhodamine B stain (FIGS. 3A-E) and protein content quantification (FIG. 3F) following 72 hours of culture with 15% serum (“FBS”), minimal serum-free medium (MIN) alone (FIG. 3B) or with 10 ng/ml basic Fibroblast Growth Factor (bFGF, FIG. 3C), 5 ng/ml Epidermal Growth Factor (EGF, FIG. 3D), 0.01 μM Prostaglandin E2 (PGE2, FIG. 3E), or 10 ng/ml Growth Hormone. Serum-free medium (SFM) contained MIN medium supplemented with bFGF (10 ng/ml), EGF (5 ng/ml), and PGE2 ([…]).
# To develop a serum-free medium that supports the culture of CEF and CS IF, the present inventor formulated a minimal medium composed of DMEM/F12 supplemented with 0.1 μM dexamethasone, 10 μg/ml insulin, 5.5 μg/ml transferrin, and 5 ng/ml selenium (ITS), 12 μM linoleic and 12 μM oleic acids, and 2 mM of L-Analyl-L-Glutamine. Cells were plated in FBS containing medium, and transferred to minimal medium after overnight attachment. Basal medium was supplemented with growth factors and hormones showing that while heparin and T3 had little effect of CSIF growth (data not shown), the addition of basic Fibroblast Growth Factor (bFGF, 10 ng/ml) was essential (FIGS. 3C and 3F), showing 20±2 hours doubling time (data not shown).
# CSIF [5] = experiment: Dox-induced MyoD1+MYOG conversion to myocytes, rMLC3-GFP reporter; assay type: cell-based, chicken; conditions: Dox-induced MyoD1+MYOG expression for 11 or 30 days
# Excerpt: FIGS. 5A-E depict conversion of CSIF to myocytes. FIG. 5A—Phase image of CSIF expressing Dox-inducible MyoD1 and Myogenin (MYOG) for 6 days (“d6”). FIGS. 5B-C—CSIF expressing rat myosin light chain COP-GFP reporter (rMLC3-GFP) following Dox-induced MyoD1+MYOG expression for 11 days (FIG. 5B) or 30 days (FIG. 5C). About 2-4% of the cultures become positive for MLC3 (Green). MLC3 positive myoblasts maintain elongated fiber morphology for over 30 days in vitro (FIG. 5C). FIG. 5D—Fluorescence staining using phalloidin (F-Actin probe, green) showing multinucleated cells (syncytia) as well as some striation following 7 days in culture. Nuclei are stained with Hoechst (blue). FIG. 5E—Immunofluorescence staining for α1-skeletal muscle actin (ACTA1, green) and Troponin T (red) showing a clear muscle phenotype by day 7 of induction. Nuclei are stained with Hoechst (blue).
# To examine if similar conversion of chicken cells to myocytes is possible, the present inventor generated several nucleic acid constructs (vectors) as is schematically illustrated in FIGS. 6-8 and 12. […] A second lentiviral vector (SEQ ID NO:2, FIG. 7) was created for Dox-inducible chicken MYOG expression included the cMyogenin coding sequence (SEQ ID NO: 7) under the control of the minimal CMV promoter (SEQ ID NO: 8). […]
# primary CEF = conditions: oleic acid 400 μM with 20% serum; selenium 100-300 μg/l with 2% serum; cited from earlier work
compound,measurement,setting,value
"CC(C)Cn1c(=O)n(C)c(=O)c2[nH]cnc21 [IBMX, 3-isobutyl-1-methylxanthine]",Normalized intracellular lipid content,"CSIF [1]; 4 and 7 days, 400 μM OA with small molecule (FIG. 4D)",optimal results
same,Adipogenesis (neutral lipid stain),"CSIF [1]; 7 days, with 400 μM oleic acid, IBMX 0.5 mM, Rosiglitazone 10 μM",strong adipogenesis
same,Adipogenic phenotype (cell shape),"CSIF [1]; added to oleic acid, IBMX 0.5 mM, Rosiglitazone 10 μM",supported a rounded adipogenic phenotype
same,Differentiation of chicken preadipocytes to adipocytes,[2],no affect
"CCCCC[C@H](O)/C=C/[C@H]1[C@H](O)CC(=O)[C@@H]1C/C=C\CCCC(=O)O [PGE2, Prostaglandin E2]",Proliferation of primary CEF,[3],supported the proliferation
same,Effect on CSIF growth / proliferation,CSIF [4],supported the proliferation
N[C@@H](Cc1cc(I)c(Oc2ccc(O)c(I)c2)c(I)c1)C(=O)O [T3],Effect on CSIF growth / proliferation,CSIF [4],little effect
"C[C@H]1c2cccc(O)c2C(=O)C2=C(O)[C@]3(O)C(=O)C(C(N)=O)=C(O)[C@@H](N(C)C)[C@@H]3[C@@H](O)[C@@H]21 [doxycycline, Doxycycline]",Cultures positive for MLC3,CSIF [5],2-4%
CCCCCCCC/C=C\CCCCCCCC(=O)O [oleic acid],Lipid accumulation,"CSIF [1]; 200 to 400 μM oleic acid, 4 or 7 days, serum-free",increased lipid accumulation
same,Differentiation of chicken preadipocytes to adipocytes,[2],induces their differentiation to adipocytes
same,Lipid accumulation in primary CEF,primary CEF,induced lipid accumulation
GH: Growth Hormone,Proliferation of primary CEF,[3],supported the proliferation
same,Effect on CSIF growth / proliferation,CSIF [4],supported the proliferation
bFGF: basic fibroblast growth factor,Doubling time,CSIF [4]; minimal medium plus bFGF 10 ng/ml (data not shown),20 ± 2 h
same,Effect on CSIF growth / proliferation,CSIF [4],essential
heparin,Effect on CSIF growth / proliferation,CSIF [4],little effect
